Reference: US20140072624A1, “UNIT DOSE FORM FOR ORAL ADMINISTRATION” (THRESHOLD PHARMACEUTICALS, INC., priority 2011, published 2014)
Read-outs that look alike come from different tables or passages of the source.

Columns and labels:
[1] = Pharmacokinetics of TH-302 in rats after a single IV dose; format: in vivo, Sprague-Dawley rats; conditions: rat; for Tmax: Sprague-Dawley, plasma
[2] = Pharmacokinetics of TH-302 in rats after a single oral (PO) dose; format: in vivo, Sprague-Dawley rats
Method: TH-302 (1-methyl-2-nitro-1H-imidazole-5-yl) N,N′-bis(2-bromoethyl) diamidophosphate, m.w.=449) that was about 96% pure based on high performance liquid chromatography (HPLC) analysis, was used. Male Sprague-Dawley rats (n=3 per time point) were administered a single oral dose of 100 mg/kg TH-302 (see, Table 1 and FIG. 1).

[3] = Single dose pharmacokinetics of TH-302 after a 30-min intravenous infusion in rats; format: in vivo; conditions: for Vd: read-out: Vss
[4] = male Sprague-Dawley rats, single oral dose 100 mg/kg in normal saline
[5] = rat, PO, 100 mg/kg, composite data, n = 3 per time point
[6] = Sprague-Dawley, rat, plasma, female rats, 50 mg/kg, 30-min IV infusion
[7] = Sprague-Dawley, rat, plasma, female rats, 100 mg/kg, 30-min IV infusion
[8] = Sprague-Dawley, rat, plasma, male rats, 50 mg/kg, 30-min IV infusion
[9] = Sprague-Dawley, rat, plasma, male rats, 100 mg/kg, 30-min IV infusion
[10] = Sprague-Dawley, rat, plasma, male rats, 200 mg/kg, 30-min IV infusion
[11] = male rats, 100 mg/kg, 30-min IV infusion
[12] = rat, plasma, female rats, 200 mg/kg, 30-min IV infusion

Question: Which Tmax ([1]; 1 mg/kg, n = 3, mean ± S.D.) does the source give for Cn1c(COP(=O)(NCCBr)NCCBr)cnc1[N+](=O)[O-] [TH-302] here?
Answer: 1.98 min

Question: And the Tmax ([1]; 5 mg/kg, n = 2, mean ± S.D.)?
Answer: 1.98 min

Question: What about the Tmax ([1]; 20 mg/kg, n = 3, mean ± S.D.) of the same compound?
Answer: 1.98 min

Question: What about the Tmax ([1]; 50 mg/kg, n = 3, mean ± S.D.) of the same compound?
Answer: 1.98 min

Question: What about the “AUC (total area under the concentration-time curve from zero to infinity)” value ([1]; 1 mg/kg, n = 3, mean ± S.D.) of the same compound?
Answer: 0.221 ± 0.054 μg-

Question: And the Cmax ([1]; 1 mg/kg, n = 3, mean ± S.D.)?
Answer: 0.802 ± 0.165 μg/m

Question: And the “AUC (total area under the concentration-time curve from zero to infinity)” value ([1]; 5 mg/kg, n = 2)?
Answer: 0.826 μg-

Question: What about the Cmax ([1]; 5 mg/kg, n = 2) of the same compound?
Answer: 3.82 μg/m

Question: And the “AUC (total area under the concentration-time curve from zero to infinity)” value ([1]; 20 mg/kg, n = 3, mean ± S.D.)?
Answer: 3.30 ± 0.36 μg-

Question: What about the Cmax ([1]; 20 mg/kg, n = 3, mean ± S.D.) of the same compound?
Answer: 13.5 ± 1.52 μg/m

Question: What about the “AUC (total area under the concentration-time curve from zero to infinity)” value ([1]; 50 mg/kg, n = 3, mean ± S.D.) of the same compound?
Answer: 8.47 ± 0.02 μg-

Question: What about the Cl ([1]; 50 mg/kg, n = 3, mean ± S.D.) of the same compound?
Answer: 5.91 ± 0.25 L/h/kg

Question: And the Cmax ([1]; 50 mg/kg, n = 3, mean ± S.D.)?
Answer: 35.5 ± 3.01 μg/m

Question: What about the Vss ([1]; 50 mg/kg, n = 3, mean ± S.D.) of the same compound?
Answer: 1.67 ± 0.04 L/kg

Question: And the “time of mean peak plasma concentration (first sampled time point)” value ([2]; male Sprague-Dawley rats, single oral dose 100 mg/kg)?
Answer: 15 min

Question: And the “mean peak plasma concentration” value [2, 4]?
Answer: 15.8 µg/mL

Question: And the “time of mean peak plasma concentration (first sampling time point)” value [2, 4]?
Answer: 0.25 h

Question: And the “oral absorption (in words)” value ([2]; male Sprague-Dawley rats, single oral dose 100 mg/kg, 100 mg/kg)?
Answer: rapidly and well absorbed

Question: And the t1/2 ([2]; male rat, PO, 100 mg/kg, composite data, n = 3 per time point)?
Answer: 96 min

Question: And the Tmax ([2]; male, Sprague-Dawley, plasma, rat, PO, 100 mg/kg, composite data, n = 3 per time point)?
Answer: 15 min

Question: What about the bioavailability ([2]; male, Sprague-Dawley, rat, plasma, oral, 100 mg/kg, male rat, PO, 100 mg/kg vs 100 mg/kg 30 minute IV infusion, read-out: Oral F (absolute oral bioavailability)) of the same compound?
Answer: 77.3%

Question: What about the “AUC (total area under the concentration-time curve from zero to infinity)” value [2, 5] of the same compound?
Answer: 13.1 μg-

Question: What about the Cmax [2, 5] of the same compound?
Answer: 15.8 μg/m

Question: And the AUC ([2]; rat, plasma, male Sprague-Dawley rats, single oral dose 100 mg/kg, read-out: mean area under the curve (AUC))?
Answer: 13.1 µg·h/mL

Question: What about the Cmax [3, 6] of the same compound?
Answer: 14.1 µg/mL

Question: And the Tmax [3, 6]?
Answer: 31 min

Question: What about the clearance [3, 6] of the same compound?
Answer: 6.87 L/h/kg

Question: And the Vd [3, 6]?
Answer: 2.81 L/kg

Question: What about the Cmax [3, 7] of the same compound?
Answer: 30 µg/mL

Question: What about the Tmax [3, 7] of the same compound?
Answer: 30 min

Question: And the clearance [3, 7]?
Answer: 6.16 L/h/kg

Question: And the Vd [3, 7]?
Answer: 2.59 L/kg

Question: And the Vd ([3]; Sprague-Dawley, rat, plasma, female rats, 200 mg/kg, 30-min IV infusion)?
Answer: 2.35 L/kg

Question: What about the Cmax [3, 8] of the same compound?
Answer: 15.6 µg/mL

Question: What about the Tmax [3, 8] of the same compound?
Answer: 31 min

Question: And the clearance [3, 8]?
Answer: 6.27 L/h/kg

Question: And the Vd [3, 8]?
Answer: 2.57 L/kg

Question: And the Tmax [3, 9]?
Answer: 33 min

Question: What about the clearance [3, 9] of the same compound?
Answer: 5.9 L/h/kg

Question: And the Cmax ([3]; Sprague-Dawley, rat, plasma, male rats, 100 mg/kg, 30-min IV infusion (end of infusion))?
Answer: 30.9 µg/mL

Question: What about the Vd [3, 9] of the same compound?
Answer: 2.59 L/kg

Question: What about the Cmax [3, 10] of the same compound?
Answer: 62.5 µg/mL

Question: What about the Tmax [3, 10] of the same compound?
Answer: 33 min

Question: And the clearance [3, 10]?
Answer: 5.38 L/h/kg

Question: What about the Vd [3, 10] of the same compound?
Answer: 2.51 L/kg

Question: What about the AUC ([3]; female, Sprague-Dawley, rat, plasma, iv, 50 mg/kg, female rats, 50 mg/kg, 30-min IV infusion, read-out: AUC) of the same compound?
Answer: 7.33 µg·h/mL

Question: And the half-life ([3]; female, Sprague-Dawley, rat, plasma, iv, 50 mg/kg, female rats, 50 mg/kg, 30-min IV infusion, read-out: Half-Life (converted))?
Answer: 19.1 min

Question: And the AUC ([3]; female, Sprague-Dawley, rat, plasma, iv, 100 mg/kg, female rats, 100 mg/kg, 30-min IV infusion, read-out: AUC)?
Answer: 16.1 µg·h/mL

Question: And the half-life ([3]; female, Sprague-Dawley, rat, plasma, iv, 100 mg/kg, female rats, 100 mg/kg, 30-min IV infusion, read-out: Half-Life (converted))?
Answer: 17.2 min

Question: And the AUC ([3]; female, rat, plasma, iv, 200 mg/kg, female rats, 200 mg/kg, 30-min IV infusion, read-out: AUC)?
Answer: 40.6 µg·h/mL

Question: What about the half-life ([3]; female, rat, plasma, iv, 200 mg/kg, female rats, 200 mg/kg, 30-min IV infusion, read-out: Half-Life (converted)) of the same compound?
Answer: 23.4 min

Question: And the AUC [3, 11]?
Answer: 17.0 µg·h/mL

Question: And the half-life [3, 11]?
Answer: 16.1 min

Question: What about the AUC ([3]; male, Sprague-Dawley, rat, plasma, iv, 50 mg/kg, male rats, 50 mg/kg, 30-min IV infusion, read-out: AUC) of the same compound?
Answer: 7.94 µg·h/mL

Question: And the half-life ([3]; male, Sprague-Dawley, rat, plasma, iv, 50 mg/kg, male rats, 50 mg/kg, 30-min IV infusion, read-out: Half-Life (converted))?
Answer: 20 min

Question: And the AUC ([3]; male, Sprague-Dawley, rat, plasma, iv, 100 mg/kg, male rats, 100 mg/kg, 30-min IV infusion, read-out: AUC)?
Answer: 17.1 µg·h/mL

Question: What about the half-life ([3]; male, Sprague-Dawley, rat, plasma, iv, 100 mg/kg, male rats, 100 mg/kg, 30-min IV infusion, read-out: Half-Life (converted)) of the same compound?
Answer: 16.2 min

Question: What about the AUC ([3]; male, Sprague-Dawley, rat, plasma, iv, 200 mg/kg, male rats, 200 mg/kg, 30-min IV infusion, read-out: AUC) of the same compound?
Answer: 37.6 µg·h/mL

Question: What about the half-life ([3]; male, Sprague-Dawley, rat, plasma, iv, 200 mg/kg, male rats, 200 mg/kg, 30-min IV infusion, read-out: Half-Life (converted)) of the same compound?
Answer: 19.4 min

Question: And the Cmax [3, 12]?
Answer: 71.1 µg/mL

Question: And the Tmax [3, 12]?
Answer: 41 min

Question: And the clearance [3, 12]?
Answer: 4.84 L/h/kg
